Measurements published in the NIST ThermoML archive (doi:10.1016/j.jct.2015.11.021).
± gives the expanded uncertainty stated by the source.

Conditions: Liquid, Closed cell (Static) method

Structure (SMILES) | vapor or sublimation pressure (303.15 K) [kPa] | vapor or sublimation pressure (323.15 K) [kPa] | vapor or sublimation pressure (343.15 K) [kPa] | vapor or sublimation pressure (363.15 K) [kPa] | vapor or sublimation pressure (373.15 K) [kPa]
FC(F)CC(F)(F)F [1,1,1,3,3-pentafluoropropane] | 177.8 ± 1.1 | 344.7 ± 1.2 | 610.2 ± 1.5 | 1006.7 ± 2 | 1266.2 ± 2.4
CCCC [butane] | 283.7 ± 1.1 | 496.2 ± 1.2 | 809.8 ± 1.5 | 1249.8 ± 2.1 | 1526.8 ± 2.4
